From PMC2630805, “Anticancer Alkaloid Lamellarins Inhibit Protein Kinases” (Marine Drugs, 2008)

Assays:
CDK1/cyclin B = CDK1/cyclin B kinase assay (histone H1, P81 phosphocellulose); format: biochemical, starfish (Marthasterias glacialis); settings: 15 μM ATP; cell '− (x)' = no inhibitory activity detected, x = highest concentration tested
Procedure: ATP (3,000 Ci/mmol; 1 mCi/ml) in a final volume of 30 μl. […] The wet filters were counted in the presence of 1 ml ACS (Amersham) scintillation fluid.

GSK-3α/ß = test: GSK-3α/β kinase assay (GS-1 substrate); format: biochemical, porcine; settings: 15 μM ATP; cell '− (x)' = no inhibitory activity detected, x = highest concentration tested
Description: GSK-3 α/β was purified from porcine brain by affinity chromatography on immobilized axin [39].

PIM 1 = PIM 1 (Homo sapiens, UniProt P11309); test: PIM1 kinase assay (histone H1); format: biochemical
PIM 1, sequence (P11309 whole entry, species assumed): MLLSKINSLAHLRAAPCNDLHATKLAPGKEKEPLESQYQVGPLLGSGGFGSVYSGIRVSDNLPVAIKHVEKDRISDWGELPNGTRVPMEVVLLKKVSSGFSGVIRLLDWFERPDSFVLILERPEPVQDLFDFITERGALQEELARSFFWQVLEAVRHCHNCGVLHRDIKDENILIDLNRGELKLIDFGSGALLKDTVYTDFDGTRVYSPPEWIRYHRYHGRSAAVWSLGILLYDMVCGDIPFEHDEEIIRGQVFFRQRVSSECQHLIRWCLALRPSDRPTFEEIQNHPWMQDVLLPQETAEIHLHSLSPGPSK

Brk (h) = Brk (h) (Homo sapiens, UniProt Q13882); test: CEREP Kinase Selectivity Panel; format: biochemical; settings: 10 μM lamellarin N
Brk (h), sequence (Q13882 whole entry): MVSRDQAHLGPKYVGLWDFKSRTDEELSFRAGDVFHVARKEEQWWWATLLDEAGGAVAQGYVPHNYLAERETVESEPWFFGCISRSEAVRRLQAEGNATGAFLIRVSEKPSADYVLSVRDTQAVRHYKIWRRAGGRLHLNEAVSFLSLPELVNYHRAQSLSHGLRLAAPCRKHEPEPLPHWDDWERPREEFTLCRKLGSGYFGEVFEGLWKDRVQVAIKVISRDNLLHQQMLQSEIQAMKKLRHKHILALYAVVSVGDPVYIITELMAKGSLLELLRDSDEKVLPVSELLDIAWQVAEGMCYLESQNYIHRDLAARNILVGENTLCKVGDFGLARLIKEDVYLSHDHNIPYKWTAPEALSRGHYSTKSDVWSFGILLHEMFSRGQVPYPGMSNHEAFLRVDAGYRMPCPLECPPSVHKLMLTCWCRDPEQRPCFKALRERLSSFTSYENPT

CaMK4 (h) = CaMK4 (h) (Homo sapiens, UniProt Q16566); test: CEREP Kinase Selectivity Panel; format: biochemical; settings: 10 μM lamellarin N
CDC2/CDK1 (h) (cycB) = CDC2/CDK1 (h) (cycB) (Homo sapiens, UniProt P06493); test: CEREP Kinase Selectivity Panel; format: biochemical; settings: 10 μM lamellarin N
CDK2 (h) (cycE) = CDK2 (h) (cycE) (Homo sapiens, UniProt P24941); test: CEREP Kinase Selectivity Panel; format: biochemical; settings: 10 μM lamellarin N
CHK1 (h) = CHK1 (h) (Homo sapiens, UniProt O14757); test: CEREP Kinase Selectivity Panel; format: biochemical; settings: 10 μM lamellarin N
CHK2 (h) = CHK2 (h) (Homo sapiens, UniProt O96017); test: CEREP Kinase Selectivity Panel; format: biochemical; settings: 10 μM lamellarin N
c-Met kinase (h) = c-Met kinase (h) (Homo sapiens, UniProt P08581); test: CEREP Kinase Selectivity Panel; format: biochemical; settings: 10 μM lamellarin N
ERK2 (h) (P42mapk) = ERK2 (h) (P42mapk) (Homo sapiens, UniProt P28482); test: CEREP Kinase Selectivity Panel; format: biochemical; settings: 10 μM lamellarin N
FGFR2 kinase (h) = FGFR2 kinase (h) (Homo sapiens, UniProt P21802); test: CEREP Kinase Selectivity Panel; format: biochemical; settings: 10 μM lamellarin N
FGFR4 kinase (h) = FGFR4 kinase (h) (Homo sapiens, UniProt P22455); test: CEREP Kinase Selectivity Panel; format: biochemical; settings: 10 μM lamellarin N
FGFR4 kinase (h), sequence (P22455 22-802): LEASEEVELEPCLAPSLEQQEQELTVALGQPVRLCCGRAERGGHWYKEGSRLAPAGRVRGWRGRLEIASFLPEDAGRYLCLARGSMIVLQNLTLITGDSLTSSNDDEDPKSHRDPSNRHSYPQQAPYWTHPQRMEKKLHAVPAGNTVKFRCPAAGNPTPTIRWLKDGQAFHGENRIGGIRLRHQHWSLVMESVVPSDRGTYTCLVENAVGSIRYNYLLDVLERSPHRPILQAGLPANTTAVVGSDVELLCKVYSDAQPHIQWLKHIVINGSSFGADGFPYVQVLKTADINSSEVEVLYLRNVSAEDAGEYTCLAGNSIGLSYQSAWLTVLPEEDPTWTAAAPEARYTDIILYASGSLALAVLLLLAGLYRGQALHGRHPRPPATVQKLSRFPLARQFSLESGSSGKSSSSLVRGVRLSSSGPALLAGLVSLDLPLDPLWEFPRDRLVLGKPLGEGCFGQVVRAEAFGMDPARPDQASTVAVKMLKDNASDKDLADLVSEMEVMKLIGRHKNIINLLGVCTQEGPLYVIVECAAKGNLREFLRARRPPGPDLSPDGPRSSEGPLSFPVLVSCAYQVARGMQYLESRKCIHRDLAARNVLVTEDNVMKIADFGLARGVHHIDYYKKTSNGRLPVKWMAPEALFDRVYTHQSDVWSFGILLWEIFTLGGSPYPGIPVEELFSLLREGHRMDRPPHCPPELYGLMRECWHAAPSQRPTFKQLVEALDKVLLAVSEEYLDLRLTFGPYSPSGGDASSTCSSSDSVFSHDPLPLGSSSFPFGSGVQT

FLT-3 kinase (h) = FLT-3 kinase (h) (Homo sapiens, UniProt P36888); test: CEREP Kinase Selectivity Panel; format: biochemical; settings: 10 μM lamellarin N
FLT-3 kinase (h), sequence (P36888 27-993): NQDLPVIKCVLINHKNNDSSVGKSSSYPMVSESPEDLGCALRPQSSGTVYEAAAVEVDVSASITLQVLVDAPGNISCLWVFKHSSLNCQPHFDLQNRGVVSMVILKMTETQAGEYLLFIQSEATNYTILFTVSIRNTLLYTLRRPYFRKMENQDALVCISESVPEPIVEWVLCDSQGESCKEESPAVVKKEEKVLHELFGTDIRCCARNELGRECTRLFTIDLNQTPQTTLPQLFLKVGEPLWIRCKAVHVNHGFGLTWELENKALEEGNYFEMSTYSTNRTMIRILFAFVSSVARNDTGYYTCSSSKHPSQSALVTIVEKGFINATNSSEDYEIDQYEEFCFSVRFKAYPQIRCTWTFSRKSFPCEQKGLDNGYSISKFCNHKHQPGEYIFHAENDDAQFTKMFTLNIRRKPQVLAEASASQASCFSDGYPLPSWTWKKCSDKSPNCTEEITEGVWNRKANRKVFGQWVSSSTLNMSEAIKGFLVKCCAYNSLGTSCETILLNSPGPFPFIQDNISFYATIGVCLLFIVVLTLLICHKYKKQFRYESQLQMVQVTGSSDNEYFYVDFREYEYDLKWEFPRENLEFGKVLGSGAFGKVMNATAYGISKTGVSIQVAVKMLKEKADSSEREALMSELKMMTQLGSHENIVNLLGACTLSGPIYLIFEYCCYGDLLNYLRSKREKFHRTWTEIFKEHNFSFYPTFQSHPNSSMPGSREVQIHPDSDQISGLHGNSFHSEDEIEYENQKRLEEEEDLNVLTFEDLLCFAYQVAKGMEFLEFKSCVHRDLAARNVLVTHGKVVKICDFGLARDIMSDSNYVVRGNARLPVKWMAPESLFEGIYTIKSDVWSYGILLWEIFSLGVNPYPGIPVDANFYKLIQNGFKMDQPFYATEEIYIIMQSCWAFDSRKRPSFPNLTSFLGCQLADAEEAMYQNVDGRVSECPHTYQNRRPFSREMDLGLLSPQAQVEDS

JNK 2 (h) = JNK 2 (h) (Homo sapiens, UniProt P45984); test: CEREP Kinase Selectivity Panel; format: biochemical; settings: 10 μM lamellarin N
JNK 2 (h), sequence (P45984 whole entry): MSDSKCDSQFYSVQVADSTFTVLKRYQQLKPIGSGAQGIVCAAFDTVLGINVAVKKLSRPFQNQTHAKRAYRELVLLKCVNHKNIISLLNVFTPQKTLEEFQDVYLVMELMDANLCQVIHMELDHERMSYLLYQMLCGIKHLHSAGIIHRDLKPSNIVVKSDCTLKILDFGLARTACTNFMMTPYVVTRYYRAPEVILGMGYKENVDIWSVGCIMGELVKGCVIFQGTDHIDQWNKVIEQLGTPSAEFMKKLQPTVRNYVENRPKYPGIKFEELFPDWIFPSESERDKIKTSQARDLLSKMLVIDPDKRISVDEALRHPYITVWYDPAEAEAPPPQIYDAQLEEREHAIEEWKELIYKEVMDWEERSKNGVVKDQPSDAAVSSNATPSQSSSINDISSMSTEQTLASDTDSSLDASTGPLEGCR

KDR kinase (h) (VEGFR2) = KDR kinase (h) (VEGFR2) (Homo sapiens, UniProt P35968); test: CEREP Kinase Selectivity Panel; format: biochemical; settings: 10 μM lamellarin N
Lck kinase (h) = Lck kinase (h) (Homo sapiens, UniProt P06239); test: CEREP Kinase Selectivity Panel; format: biochemical; settings: 10 μM lamellarin N
Lck kinase (h), sequence (P06239 whole entry): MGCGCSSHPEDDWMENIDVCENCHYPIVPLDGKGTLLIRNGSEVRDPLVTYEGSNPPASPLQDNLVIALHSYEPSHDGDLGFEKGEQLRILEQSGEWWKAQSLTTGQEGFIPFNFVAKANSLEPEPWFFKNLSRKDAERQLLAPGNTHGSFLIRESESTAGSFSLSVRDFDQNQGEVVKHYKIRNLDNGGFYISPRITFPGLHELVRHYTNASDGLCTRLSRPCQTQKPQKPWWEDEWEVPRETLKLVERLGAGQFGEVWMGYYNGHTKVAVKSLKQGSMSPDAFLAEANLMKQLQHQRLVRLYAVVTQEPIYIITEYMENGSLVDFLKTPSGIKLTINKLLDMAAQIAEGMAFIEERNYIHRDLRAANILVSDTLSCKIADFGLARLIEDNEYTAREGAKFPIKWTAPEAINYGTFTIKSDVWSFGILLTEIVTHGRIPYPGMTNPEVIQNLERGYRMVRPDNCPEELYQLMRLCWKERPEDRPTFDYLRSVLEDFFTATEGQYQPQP

MEK1/MAP2K1 (h) = MEK1/MAP2K1 (h) (Homo sapiens, UniProt Q02750); test: CEREP Kinase Selectivity Panel; format: biochemical; settings: 10 μM lamellarin N
p38α kinase (h) = p38α kinase (h) (Homo sapiens, UniProt Q16539); test: CEREP Kinase Selectivity Panel; format: biochemical; settings: 10 μM lamellarin N
p38α kinase (h), sequence (Q16539 whole entry): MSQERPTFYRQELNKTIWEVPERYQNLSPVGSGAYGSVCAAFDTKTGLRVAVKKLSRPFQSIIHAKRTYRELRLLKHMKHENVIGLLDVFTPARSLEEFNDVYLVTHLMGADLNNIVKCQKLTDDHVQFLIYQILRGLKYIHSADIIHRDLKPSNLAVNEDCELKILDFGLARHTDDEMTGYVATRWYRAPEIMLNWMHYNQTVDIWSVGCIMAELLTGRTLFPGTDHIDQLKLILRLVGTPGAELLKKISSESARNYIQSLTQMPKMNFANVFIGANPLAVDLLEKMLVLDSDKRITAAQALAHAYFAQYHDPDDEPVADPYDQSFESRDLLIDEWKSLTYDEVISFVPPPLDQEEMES

p38δ kinase (h) = p38δ kinase (h) (Homo sapiens, UniProt O15264); test: CEREP Kinase Selectivity Panel; format: biochemical; settings: 10 μM lamellarin N
p38γ kinase (h) = p38γ kinase (h) (Homo sapiens, UniProt P53778); test: CEREP Kinase Selectivity Panel; format: biochemical; settings: 10 μM lamellarin N
PDGFRβ kinase (h) = PDGFRβ kinase (h) (Homo sapiens, UniProt P09619); test: CEREP Kinase Selectivity Panel; format: biochemical; settings: 10 μM lamellarin N
PKCα (h) = PKCα (h) (Homo sapiens, UniProt P17252); test: CEREP Kinase Selectivity Panel; format: biochemical; settings: 10 μM lamellarin N
PKCβ 1 (h) = PKCβ 1 (h) (Homo sapiens, UniProt P05771); test: CEREP Kinase Selectivity Panel; format: biochemical; settings: 10 μM lamellarin N
PKCβ 1 (h), sequence (P05771 whole entry): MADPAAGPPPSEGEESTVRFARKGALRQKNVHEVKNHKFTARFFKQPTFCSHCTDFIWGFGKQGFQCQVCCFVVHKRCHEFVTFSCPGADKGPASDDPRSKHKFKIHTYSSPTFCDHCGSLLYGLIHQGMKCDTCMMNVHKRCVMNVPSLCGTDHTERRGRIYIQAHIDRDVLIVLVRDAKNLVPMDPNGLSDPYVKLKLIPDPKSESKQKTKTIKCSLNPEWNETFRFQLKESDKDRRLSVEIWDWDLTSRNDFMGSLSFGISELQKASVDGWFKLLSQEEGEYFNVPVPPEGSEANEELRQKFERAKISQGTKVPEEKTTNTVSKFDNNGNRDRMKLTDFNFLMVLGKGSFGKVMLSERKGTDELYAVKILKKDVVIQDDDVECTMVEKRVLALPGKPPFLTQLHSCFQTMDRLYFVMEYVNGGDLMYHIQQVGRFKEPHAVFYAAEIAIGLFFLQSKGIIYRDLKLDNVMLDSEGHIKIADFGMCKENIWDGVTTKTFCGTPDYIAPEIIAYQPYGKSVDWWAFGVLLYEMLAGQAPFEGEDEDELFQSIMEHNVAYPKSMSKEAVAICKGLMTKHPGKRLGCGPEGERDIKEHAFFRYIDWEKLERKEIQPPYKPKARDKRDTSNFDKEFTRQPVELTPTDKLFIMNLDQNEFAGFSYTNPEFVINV

ROCK2 (h) = ROCK2 (h) (Homo sapiens, UniProt O75116); test: CEREP Kinase Selectivity Panel; format: biochemical; settings: 10 μM lamellarin N
Src kinase (h) = Src kinase (h) (Homo sapiens, UniProt P12931); test: CEREP Kinase Selectivity Panel; format: biochemical; settings: 10 μM lamellarin N
Src kinase (h), sequence (P12931 whole entry): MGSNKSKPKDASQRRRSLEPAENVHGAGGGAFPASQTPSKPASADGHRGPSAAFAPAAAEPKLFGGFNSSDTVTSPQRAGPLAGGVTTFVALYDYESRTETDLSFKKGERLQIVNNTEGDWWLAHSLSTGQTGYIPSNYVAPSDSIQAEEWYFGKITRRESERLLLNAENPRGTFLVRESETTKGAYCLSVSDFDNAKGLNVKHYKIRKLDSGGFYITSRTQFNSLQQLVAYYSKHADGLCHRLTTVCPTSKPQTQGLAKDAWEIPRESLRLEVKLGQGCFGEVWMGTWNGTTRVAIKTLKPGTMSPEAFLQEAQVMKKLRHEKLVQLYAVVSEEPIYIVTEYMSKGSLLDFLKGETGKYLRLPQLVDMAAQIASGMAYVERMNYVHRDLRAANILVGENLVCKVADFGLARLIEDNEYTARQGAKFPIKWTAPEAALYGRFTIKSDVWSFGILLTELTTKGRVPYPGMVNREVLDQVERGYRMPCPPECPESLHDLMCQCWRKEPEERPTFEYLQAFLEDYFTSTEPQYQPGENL

Syk (h) = Syk (h) (Homo sapiens, UniProt P43405); test: CEREP Kinase Selectivity Panel; format: biochemical; settings: 10 μM lamellarin N
SH-SY5Y cells = test: Kinetics and dose-response of cell death (MTS reduction, LDH release, DEVDase caspase activity); format: cell-based, human; settings: dose-response, doses as low as
Procedure: SH-SY5Y cells were next incubated with a range of lamellarin N concentrations or at 1 μM over 48 hrs. Cell survival was monitored by the MTS reduction assay, cell death was assessed by the LDH release assay and caspase activation was measured using DEVD as a substrate (Figure 1).
Figure 1. Dose- and time- dependent induction of cell death by lamellarin N. (A) Neuroblastoma SH-SY5Y cells were treated with lamellarin N at various concentrations. Cell death was measured by LDH release, cell survival was assessed by the MTS reduction assay, and caspase 3 activity was monitored as DEVDase activity. MTS and LDH assay were carried out 48 hours after treatment with lamellarin N. The caspase assay was carried out 24 hours after treatment. (B) Kinetics of cell survival, cell death and caspases activation following exposure of SH-SY5Y cells to 1 μM lamellarin N. Average of 3 independent experiments performed in triplicate. The standard deviation (±SD) is indicated by error bars.
SH-SY5Y human neuroblastoma cells were grown in DMEM supplemented with 2mM L-glutamine (Invitrogen, Cergy Pontoise, France), plus antibiotics (penicillin-streptomycin) and a 10% volume of fetal calf serum (FCS) (Invitrogen). Cell viability was determined by means of the MTS (3- (4,5-dimethylthiazol-2-yl)-5- (3-carboxymethoxyphenyl)-2- (4-sulfophenyl)-2H -tetrazolium) reduction method as previously described. […]

[1] = test system: PARP, p53, p21^CIP1, Mcl-1 in SH-SY5Y cells; format: cell-based, human
Procedure: SH-SY5Y cells treated at time 0 with 1 μM lamellarin N. Cells were harvested at different time-points and protein extracted for SDS-PAGE followed by Western blot analysis using antibodies directed against PARP, p53, p21^CIP1, or Mcl-1, as described in the materials and methods section. β-actin was used as loading control. “Ctrl” denoted untreated sample after 10 hours.
At given time points and lamellarin doses, SH-SY5Y cells were harvested in phosphate buffered saline (PBS) with commercially available protease inhibitors (Roche, 11836145001). Cells were homogenized by sonication in homogenization buffer supplemented with 0.1% NP-40 and protease inhibitors. The homogenization buffer consist of: 25mM MOPS, 15mM EGTA, 15mM MgCl2, 1mM sodium orthovanadate, 1mM sodium fluoride, 60mM β-glycerophosphate, 2mM DTT, 15mM p-nitrophenylphosphate, and 1mM phenyl phosphate-di-sodium salt (all reagents supplied by Sigma). Sonication retrieved proteins. Cellular proteins were subjected to electrophoresis in SDS 10% polyacrylamide gels and transferred to a PVDF membrane (Invitrogen). Membranes were incubated with primary antibodies directed against p53 (Santa Cruz Biotech, sc-263) (1:1000), p21^CIP1 (Calbiochem, OP64) (1:1000) or poly (ADP-ribose) polymerase (PARP) (Santa Cruz Biotech, sc-7150) (1:500). Appropriate secondary antibodies conjugated to horseradish peroxidase (Biorad) were added to visualize the proteins using the ECL detection system.

CDK5/p25 = CDK5/p25 (Homo sapiens, UniProt Q00535); test: CDK5/p25 kinase assay (histone H1)
Procedure: Blank values were subtracted and activities calculated as pmoles of phosphate incorporated during a 30 min. incubation. The activities were expressed in % of the maximal activity, i.e. in the absence of inhibitors. Controls were performed with appropriate dilutions of dimethylsulfoxide. Unless otherwise stated, the P81 phosphocellulose assay was used.
Its activity was assayed with histone H1 in buffer C as described for CDK1/cyclin B.

## COc1ccc(-c2c3c4cc(OC)c(O)cc4oc(=O)c3n3ccc4cc(O)c(OC)cc4c23)cc1O [Compound 6, lamellarin N]
CDK1/cyclin B
  IC50: 0.07 µM
GSK-3α/ß
  IC50: 0.005 µM
PIM 1
  IC50: 0.055 µM
Brk (h)
  Activity (% of control): 72.8 % of control
CaMK4 (h)
  Activity (% of control): 89.9 % of control
CDC2/CDK1 (h) (cycB)
  Activity (% of control): 20.4 % of control
CDK2 (h) (cycE)
  Activity (% of control): 57.1 % of control
CHK1 (h)
  Activity (% of control): 93.3 % of control
CHK2 (h)
  Activity (% of control): 47.6 % of control
c-Met kinase (h)
  Activity (% of control): 92.1 % of control
ERK2 (h) (P42mapk)
  Activity (% of control): 79.9 % of control
FGFR2 kinase (h)
  Activity (% of control): 19.8 % of control
FGFR4 kinase (h)
  Activity (% of control): 62.5 % of control
FLT-3 kinase (h)
  Activity (% of control): 0.4 % of control
JNK 2 (h)
  Activity (% of control): 15.7 % of control
KDR kinase (h) (VEGFR2)
  Activity (% of control): 7.4 % of control
Lck kinase (h)
  Activity (% of control): 7.1 % of control
MEK1/MAP2K1 (h)
  Activity (% of control): 81.5 % of control
p38α kinase (h)
  Activity (% of control): 97.4 % of control
p38δ kinase (h)
  Activity (% of control): 96.0 % of control
p38γ kinase (h)
  Activity (% of control): 79.6 % of control
PDGFRβ kinase (h)
  Activity (% of control): 1.8 % of control
PKCα (h)
  Activity (% of control): 91.7 % of control
PKCβ 1 (h)
  Activity (% of control): 102.0 % of control
ROCK2 (h)
  Activity (% of control): 103.3 % of control
Src kinase (h)
  Activity (% of control): 56.2 % of control
Syk (h)
  Activity (% of control): 97.1 % of control
SH-SY5Y cells
  lowest dose at which cells start dying: 0.05 µM
[1]
  effect on survival factor Mcl-1 expression: not down-regulated
  lowest concentration inducing PARP cleavage and p53 and p21 expression: 0.1 µM
  time at which induction of PARP cleavage and p53 and p21 expression already takes place: ≤ 6 h
CDK5/p25
  IC50: 0.025 µM
